Values after ≈ are worked out from the molar mass of the structure shown. Values joined by “and” are separate entries in the source; they are usually repeats but may differ in a detail not shown here. Identical values can stand only once.
What was measured:
C. albicans (ATCC 10231) [1] = assay: Microdilution MIC90, strain A; type: cell-based; details: strain A; for MIC90: 24 h, yeast, 24 h at 37 °C, triplicate; for fold greater potency than that of FLC: from MIC values
C. krusei (ATCC 6258) = assay: Microdilution MIC90, strain B; type: cell-based; details: for MIC90: 24 h, yeast, 24 h at 37 °C, triplicate; for fold greater potency than that of FLC: from MIC values
C. glabrata (ATCC 90030) = assay: Microdilution MIC90, strain C; type: cell-based; details: yeast, 24 h at 37 °C, triplicate
[2] = tested on: C. parapsilosis (ATCC 22019); assay: Microdilution MIC90, strain D; type: cell-based; details: 24 h
[3] = tested on: C. tropicalis (PTCC 5028); assay: Microdilution MIC90, strain E; type: cell-based; details: 24 h
[4] = tested on: Asp. nidulans (PTCC 5014); assay: Microdilution MIC90, strain F; type: cell-based, Aspergillus nidulans; details: Aspergillus nidulans, PTCC5014, 48 h, filamentous fungi, 48 h at 37 °C, triplicate
[5] = tested on: Asp. flavus (ATCC 204304); assay: Microdilution MIC90, strain G; type: cell-based, Aspergillus flavus; details: Aspergillus flavus, ATCC204304, 48 h, filamentous fungi, 48 h at 37 °C, triplicate
[6] = tested on: Asp. fumigatus (PTCC 5009); assay: Microdilution MIC90, strain H; type: cell-based; details: filamentous fungi, 48 h at 37 °C, triplicate
Asp. niger (PTCC 5154) = assay: Microdilution MIC90, strain I; type: cell-based, Aspergillus niger; details: filamentous fungi, 48 h at 37 °C, triplicate
Asp. terreus (PTCC 5023) = assay: Microdilution MIC90, strain J; type: cell-based, Aspergillus terreus; details: filamentous fungi, 48 h at 37 °C, triplicate
T. rubrum (PTCC 5143) = assay: Microdilution MIC90, strain K; type: cell-based, Trichophyton rubrum; details: Trichophyton rubrum, PTCC5143, 48 h, filamentous fungi, 48 h at 37 °C, triplicate
[7] = tested on: Microsporum gypseum (PTCC 5070); assay: Microdilution MIC90, strain L; type: cell-based; details: filamentous fungi, 48 h at 37 °C, triplicate
[8] = tested on: T. mentagrophytes (PTCC 5054); assay: Microdilution MIC90, strain M; type: cell-based; details: Trichophyton mentagrophytes, PTCC5054, 48 h
[9] = tested on: T. schoenleinii (PTCC 5221); assay: Microdilution MIC90, strain N; type: cell-based; details: Trichophyton schoenleinii, PTCC5221, 48 h
M. canis (PTCC 5069) = assay: Microdilution MIC90, strain O; type: cell-based; details: Microsporum canis, PTCC5069, 48 h
[10] = tested on: FLC-resistant clinical Candida isolate R1 (C. albicans); assay: PMIC90, FLC-resistant isolate R1; type: cell-based; details: strain R1, planktonic
[11] = tested on: FLC-resistant clinical Candida isolate R2 (C. albicans); assay: PMIC90, FLC-resistant isolate R2; type: cell-based; details: strain R2, planktonic
[12] = tested on: FLC-resistant clinical Candida isolate R3 (C. albicans); assay: PMIC90, FLC-resistant isolate R3; type: cell-based; details: strain R3, planktonic
[13] = tested on: FLC-resistant clinical Candida isolate R4 (C. albicans); assay: PMIC90, FLC-resistant isolate R4; type: cell-based; details: strain R4, planktonic
[14] = tested on: FLC-resistant clinical Candida isolate R5 (C. albicans); assay: PMIC90, FLC-resistant isolate R5; type: cell-based; details: strain R5, planktonic
[15] = tested on: FLC-resistant clinical Candida isolate R6 (C. albicans); assay: PMIC90, FLC-resistant isolate R6; type: cell-based; details: strain R6, planktonic
[16] = tested on: FLC-resistant clinical Candida isolate R7 (C. glabrata); assay: PMIC90, FLC-resistant isolate R7; type: cell-based; details: strain R7, planktonic
[17] = tested on: FLC-resistant clinical C. albicans isolate (R1) biofilm; assay: Antibiofilm MTT reduction assay, strain R1; type: cell-based; details: triplicate
[18] = tested on: FLC-resistant clinical C. albicans isolate (R2) biofilm; assay: Antibiofilm MTT reduction assay, strain R2; type: cell-based; details: triplicate
C. albicans (ATCC 10231) [19] = assay: Time-kill assay; type: cell-based; details: 24 h period; for time-kill effect at MIC: at MIC (0.5 μg/mL)
[20] = tested on: human red blood cells (hRBCs); assay: Hemolysis assay; type: cell-based; details: 100 μg/mL, 2 h at 37 °C
PANC-1 = assay: MTT cytotoxicity assay, PANC-1; type: cell-based, human; details: 48 h; for toxicity (in words): PANC-1, at 30 and 60 μg/mL
[21] = MTT cytotoxicity assay, A-431; type: cell-based, human; details: human, A-431 epidermoid carcinoma cells
HDF normal cells = assay: MTT cytotoxicity assay, HDF; type: cell-based, human; details: HDF normal cell line, up to 100 μg/mL, 48 h
C. albicans (ATCC 10231) [22] = assay: Membrane permeabilization assay; type: cell-based; details: 8b, 8c at 1 × MIC, 2 × MIC, 4 × MIC (0.5, 1, 2 μg/mL); AMB 1 μg/mL; 3 h at 28 °C
C. albicans (ATCC 10231) [23] = assay: Murine model of systemic candidiasis; type: in vivo; details: neutropenic mice (n = 5), 15 mg/kg oral gavage, left kidney tissue
[24] = tested on: FLC-resistant clinical Candida isolates (R1–R7); assay: PMIC, seven FLC-resistant clinical Candida isolates; type: cell-based; details: read-out: MIC (growth inhibition concentrations)
A-431 = assay: MTT cytotoxicity assay, A-431; type: cell-based, human; details: 48 h, MTT
[25] = tested on: dermatophyte isolates K–O; assay: Microdilution MIC, dermatophyte isolates K–O; type: cell-based
[26] = Aspergillus fumigatus, PTCC5009, 48 h
[27] = Aspergillus niger, PTCC5154, 48 h
[28] = Aspergillus terreus, PTCC5023, 48 h
[29] = at 4 × MIC (2 μg/mL for 8b, 8c; 64 μg/mL for FLC)

## COc1ccc(NC(=O)Nc2nnc(SCC(O)(Cn3cncn3)c3ccc(F)cc3F)s2)cc1 (stereo not drawn) [Compound 8b, 1-(5-((2-(2,4-Difluorophenyl)-2-hydroxy-3-(1H-1,2,4-triazol-1-yl)propyl)thio)-1,3,4-thiadiazol-2-yl)-3-(4-methoxyphenyl)urea]
C. albicans (ATCC 10231) [1]
  MIC90: 0.5 µg/mL (≈ 0.962 µM)
  fold greater potency than that of FLC: 32 fold
C. krusei (ATCC 6258)
  MIC90: 0.5 µg/mL (≈ 0.962 µM)
  fold greater potency than that of FLC: 32 fold
C. glabrata (ATCC 90030); 24 h
  MIC90: 1 to 16 µg/mL (≈ 1.92 to 30.8 µM)
C. glabrata (ATCC 90030)
  MIC90: 1 μg·mL^–1
[2]
  MIC90: 2 µg/mL (≈ 3.85 µM)
[3]
  MIC90: 1 µg/mL (≈ 1.92 µM)
[4]
  MIC90: 8 µg/mL (≈ 15.4 µM)
[5]
  MIC90: 8 µg/mL (≈ 15.4 µM)
[6]; [26]
  MIC90: 2 to 4 µg/mL (≈ 3.85 to 7.7 µM)
[6]
  MIC90: 1 μg·mL^–1
Asp. niger (PTCC 5154); [27]
  MIC90: 2 to 4 µg/mL (≈ 3.85 to 7.7 µM)
Asp. niger (PTCC 5154)
  MIC90: 4 μg·mL^–1
Asp. terreus (PTCC 5023); [28]
  MIC90: 2 to 4 µg/mL (≈ 3.85 to 7.7 µM)
Asp. terreus (PTCC 5023)
  MIC90: 4 μg·mL^–1
T. rubrum (PTCC 5143)
  MIC90: 2 µg/mL (≈ 3.85 µM)
[7]
  MIC90: 4 μg·mL^–1
[8]
  MIC90: 4 µg/mL (≈ 7.7 µM)
[9]
  MIC90: 8 µg/mL (≈ 15.4 µM)
M. canis (PTCC 5069)
  MIC90: 8 µg/mL (≈ 15.4 µM)
[10]
  PMIC90: 0.25 µg/mL
[11]
  PMIC90: 0.5 µg/mL
[12]
  PMIC90: 2 µg/mL
[13]
  PMIC90: 1 µg/mL
[14]
  PMIC90: 2 µg/mL
[15]
  PMIC90: 2 µg/mL
[16]
  PMIC90: 1 µg/mL
[17]
  SMIC90 (sessile minimum inhibitory concentration that reduced the metabolic activity of biofilms by 90%): 0.5 µg/mL
[18]
  SMIC90 (sessile minimum inhibitory concentration that reduced the metabolic activity of biofilms by 90%): 1 µg/mL
C. albicans (ATCC 10231) [19]; [29]
  time-kill effect at 4 × MIC: fungicidal activity of compound 8b significantly enhanced
C. albicans (ATCC 10231) [19]
  time-kill effect at MIC: fungicidal effect
[20]
  hemolysis (in words): limited hemolysis
PANC-1
  toxicity (in words): no toxicity
[21]
  viability at 48 h, 100 μg/mL: < 50%
HDF normal cells
  toxicity (in words): none of the active compounds displayed toxicity
C. albicans (ATCC 10231) [22]
  cellular uptake of the PI dye: none of our compounds 8b and 8c (at 1 × MIC, 2 × MIC, or 4 × MIC) induced the cellular uptake of the PI dye
C. albicans (ATCC 10231) [23]
  kidney fungal burden, CFU/g (mean ± SD): 414 CFU/g and 414 ± 67.7 ^b CFU/g
[24]
  MIC: 0.25 to 2 µg/mL (≈ 0.481 to 3.85 µM)

## O=C(Nc1ccc(F)cc1)Nc1nnc(SCC(O)(Cn2cncn2)c2ccc(F)cc2F)s1 (stereo not drawn) [Compound 8c, 1-(5-((2-(2,4-Difluorophenyl)-2-hydroxy-3-(1H-1,2,4-triazol-1-yl)propyl)thio)-1,3,4-thiadiazol-2-yl)-3-(4-fluorophenyl)urea]
C. albicans (ATCC 10231) [1]
  MIC90: 0.5 µg/mL (≈ 0.985 µM)
  fold greater potency than that of FLC: 32 fold
C. krusei (ATCC 6258)
  MIC90: 0.5 µg/mL (≈ 0.985 µM)
  fold greater potency than that of FLC: 32 fold
C. glabrata (ATCC 90030); 24 h
  MIC90: 0.5 µg/mL (≈ 0.985 µM)
[2]
  MIC90: 2 µg/mL (≈ 3.94 µM)
[3]
  MIC90: 0.5 µg/mL (≈ 0.985 µM)
[4]
  MIC90: 16 µg/mL (≈ 31.5 µM)
[5]
  MIC90: 16 µg/mL (≈ 31.5 µM)
[6]; [26]
  MIC90: 0.5 µg/mL (≈ 0.985 µM)
Asp. niger (PTCC 5154); [27]
  MIC90: 0.5 µg/mL (≈ 0.985 µM)
Asp. terreus (PTCC 5023); [28]
  MIC90: 0.5 µg/mL (≈ 0.985 µM)
T. rubrum (PTCC 5143)
  MIC90: 4 µg/mL (≈ 7.88 µM)
[8]
  MIC90: 2 µg/mL (≈ 3.94 µM)
[9]
  MIC90: 16 µg/mL (≈ 31.5 µM)
M. canis (PTCC 5069)
  MIC90: 16 µg/mL (≈ 31.5 µM)
[10]
  PMIC90: 0.5 µg/mL
[11]
  PMIC90: 1 µg/mL
[12]
  PMIC90: 2 µg/mL
[13]
  PMIC90: 2 µg/mL
[14]
  PMIC90: 2 µg/mL
[15]
  PMIC90: 2 µg/mL
[16]
  PMIC90: 2 µg/mL
[17]
  SMIC90 (sessile minimum inhibitory concentration that reduced the metabolic activity of biofilms by 90%): 1 µg/mL
[18]
  SMIC90 (sessile minimum inhibitory concentration that reduced the metabolic activity of biofilms by 90%): 1 µg/mL
C. albicans (ATCC 10231) [19]; [29]
  time-kill effect at 4 × MIC: high fungicidal effect
C. albicans (ATCC 10231) [19]
  time-kill effect at MIC: fungistatic effect
[20]
  hemolysis (in words): limited hemolysis
PANC-1; PANC-1, 100 μg/mL
  cell survival: > 40%
PANC-1
  toxicity (in words): no toxicity
A-431; A-431, 100 μg/mL
  toxicity (in words): some toxicity levels
A-431; A-431, up to 60 μg/mL
  toxicity (in words): no toxicity
HDF normal cells
  toxicity (in words): none of the active compounds displayed toxicity
C. albicans (ATCC 10231) [22]
  cellular uptake of the PI dye: none of our compounds 8b and 8c (at 1 × MIC, 2 × MIC, or 4 × MIC) induced the cellular uptake of the PI dye
C. albicans (ATCC 10231) [23]
  kidney fungal burden, CFU/g (mean ± SD): 438 CFU/g and 438 ± 54.8 ^b CFU/g
[24]
  MIC: 0.25 to 2 µg/mL (≈ 0.493 to 3.94 µM)

## OC(Cn1cncn1)(Cn1cncn1)c1ccc(F)cc1F [FLC, Fluconazole, reference compound]
C. albicans (ATCC 10231) [1]
  MIC90: 16 µg/mL (≈ 52.2 µM)
C. krusei (ATCC 6258)
  MIC90: 16 µg/mL (≈ 52.2 µM)
C. glabrata (ATCC 90030); 24 h
  MIC90: 16 µg/mL (≈ 52.2 µM)
[2]
  MIC90: 4 µg/mL (≈ 13.1 µM)
[3]
  MIC90: 4 µg/mL (≈ 13.1 µM)
[5]
  MIC90: 2 µg/mL (≈ 6.53 µM)
[6]; [26]
  MIC90: 4 µg/mL (≈ 13.1 µM)
Asp. niger (PTCC 5154); [27]
  MIC90: 4 µg/mL (≈ 13.1 µM)
Asp. terreus (PTCC 5023); [28]
  MIC90: 4 µg/mL (≈ 13.1 µM)
T. rubrum (PTCC 5143)
  MIC90: 1 µg/mL (≈ 3.27 µM)
[8]
  MIC90: 4 µg/mL (≈ 13.1 µM)
[9]
  MIC90: 2 µg/mL (≈ 6.53 µM)
M. canis (PTCC 5069)
  MIC90: 1 µg/mL (≈ 3.27 µM)
[10]
  PMIC90: >64 µg/mL
[11]
  PMIC90: >64 µg/mL
[12]
  PMIC90: >64 µg/mL
[13]
  PMIC90: >64 µg/mL
[14]
  PMIC90: >64 µg/mL
[15]
  PMIC90: >64 µg/mL
[16]
  PMIC90: >64 µg/mL
C. albicans (ATCC 10231) [19]; […]; 64 μg/mL for FLC)
  time-kill effect at 4 × MIC: no significant effect
C. albicans (ATCC 10231) [23]
  kidney fungal burden, CFU/g (mean ± SD): 512 CFU/g and 512 ± 63.5 ^b CFU/g
[24]
  MIC: ≥ 64 µg/mL
[25]
  MIC: 1 to 4 µg/mL (≈ 3.27 to 13.1 µM)
